# Laboratory results: patent US9682962B2, “Pyrazolyl pyrimidinamine compound and application thereof” (SHENYANG SINOCHEM AGROCHEMICALS R&D CO., LTD., priority 2013, dated 2017)
# Experiments:
# [1] = tested on: wheat powdery mildew; experiment: Protectant activity in vivo (whole plant), wheat powdery mildew; conditions: protectant activity
# Procedure: (§1) The method is as followed: The whole plant is used in this test. The compound is dissolved in a proper solvent to get mother solution. The proper solvent is selected from acetone, methanol, DMF and so on according to their dissolving capability to the sample. […] The testing solution is sprayed to the host plant by a special plant sprayer. The plant is inoculated with fungus after 24 hours. According to the infecting characteristic of fungus, the plant is stored in a humidity chamber and then transferred into greenhouse after infection is finished. And the other plants are placed in greenhouse directly.
# [2] = tested on: Green peach aphids (Myzus Persicae Sulzer); experiment: Bioactivity test against green peach aphid (airbrush foliar spray); format: in vivo
# Procedure: (§2) Compounds were dissolved in mixed solvent (acetone:methanol=1:1), and diluted to required concentration with water containing 0.1% of tween 80.
# (§3) Diamond back moth, armyworm, peach aphid and carmine spider mite were used as targets and the method of spraying by airbrush was used for determination of insecticidal bioassays.
# Method: Filter papers were put in culture dishes (Diameter=6 cm), and water was dripped on filter papers for preserving moisture. Green peach aphids (Myzus Persicae Sulzer) were maintained on cabbage. Leaves (Diameter=3 cm) of approximately 15-30 aphids were put in the culture dishes. Bioactivity tests were used the method of Airbrush Foliar Spray, pressure=10 psi (0.7 kg/cm2), spray volume=0.5 mL. The studies were conducted at […] 25±1 C in incubator cabinets with 60±5% RH. Survey the survival aphids after 48 h and calculate the death rates.
# [3] = tested on: carmine spider mite; experiment: Bioactivity test against carmine spider mite (airbrush spray); format: in vivo; conditions: Tetranychus cinnabarinus, 72 h, after 72 hrs, read-out: control against carmine spider mite (mortality)
# Procedure: as §2, §3
# The method: shoots with two true leaves in pot were taken, the healthy adults of carmine spider mite were inoculated to the leaves. The adults were counted and then sprayed with airbrush at the pressure of 0.7 kg/cm^2 and at dose of 0.5 ml. 3 replicates were set for each treatment. And then they were maintained in standard observation room. Scores were conducted and mortalities were calculated after 72 hrs.
# [4] = tested on: diamond back moth; experiment: Bioactivity test against diamond back moth (airbrush spray); format: in vivo; conditions: for control against diamond back moth (mortality): after 72 h
# Procedure: as §2, §3
# The method of spraying by airbrush: The cabbage leaves were made into plates of 2 cm diameter by use of punch. A test solution (0.5 ml) was sprayed by airbrush at the pressure of 0.7 kg/cm^2 to both sides of every plate. 10 Second instar larvae were put into the petri-dishes after the leaf disc air-dried and 3 replicates were set for each treatment. Then the insects were maintained in observation room (25° C., 60˜70% R.H.). Scores were conducted and mortalities were calculated after 72 h.
# [5] = tested on: cucumber anthracnose; experiment: Protectant activity in vivo (whole plant), cucumber anthracnose; conditions: for control effect against cucumber anthracnose (%): protectant activity
# Procedure: as §1
# [6] = tested on: cucumber downy mildew; experiment: Protectant activity in vivo (whole plant), cucumber downy mildew; conditions: for control effect against cucumber downy mildew(%): protectant activity
# Procedure: as §1
# [7] = tested on: rice blast; experiment: microbe, parasite or virus in culture; format: cell-based; conditions: for inhibition at 25 ppm: Pyricularia oryzae, read-out: inhibition rate against rice blast, 25 ppm, in vitro; for inhibition rate against rice blast: in vitro
# [8] = tested on: cucumber gray mold; experiment: Fungicidal activity in vitro (96-cell culture board), cucumber gray mold; format: cell-based; conditions: read-out: inhibition rate against cucumber gray mold
Compound,control effect against wheat powdery mildew (%) ([1]; 100 mg/L),control effect against wheat powdery mildew (%) ([1]; 400 mg/L),Insecticidal activity against peach aphid (%) ([2]; 100 mg/L),Insecticidal activity against peach aphid (%) ([2]; 600 mg/L),Insecticidal activity against diamond back moth (%) ([4]; 600 mg/L),control effect against cucumber anthracnose (%) ([5]; 400 mg/L),control effect against cucumber downy mildew(%) ([6]; 400 mg/L),control effect against cucumber downy mildew(%) ([6]; 25 mg/L),control effect against cucumber downy mildew(%) ([6]; 50 mg/L),control effect against cucumber downy mildew(%) ([6]; 100 mg/L),control effect against wheat powdery mildew (%) ([1]; 6.25 mg/L),control effect against wheat powdery mildew (%) ([1]; 25 mg/L),also measured
CCc1ncnc(NCCc2cnn(C(C)(C)C)c2)c1Cl [Compound 23],98,100,94,100,–,–,–,–,–,–,–,–,mortality at 100 ppm ([3]; 100 ppm): > 80%; mortality at 600 ppm [3]: > 80%
"Cc1nc(Cl)cc(N(C)Cc2c(C)nn(-c3ccccc3)c2C)n1 [CK5, reference compound]",–,0,22,100,0,0,85,–,–,–,–,–,Insecticidal activity against peach aphid (%) ([2]; 10 mg/L): 0%
"Cc1cc(N(C)Cc2cnn(-c3ccccc3)c2)nc(C(C)C)n1 [CK4, reference compound]",–,0,–,0,0,0,100,0,40,50,–,–,–
Cc1nc(C)c(Cl)c(NCCc2cnn(-c3ccc(Cl)cc3Cl)c2)n1 [Compound 1373],–,–,–,–,–,–,100,100,100,100,–,–,inhibition at 25 ppm [7]: > 80%; control effect against cucumber downy mildew(%) ([6]; 12.5 mg/L): 100%; protectant activity against cucumber downy mildew in vivo ([6]; 3.125 ppm): 85%; protectant activity against cucumber downy mildew in vivo ([6]; 6.25 ppm): 95%; mortality at 600 ppm [3]: > 80%
FC(F)c1ncnc(NCCc2cnn(-c3ccc(C(F)(F)F)cc3)c2)c1Cl [Compound 865],85,100,–,–,100,–,–,–,–,–,40,80,Insecticidal activity against diamond back moth (%) ([4]; 10 mg/L): 42%; Insecticidal activity against diamond back moth (%) ([4]; 100 mg/L): 50%; control against diamond back moth (mortality) ([4]; 600 ppm): 100%
CCc1ncnc(NCCc2cnn(-c3ccc(Cl)cc3)c2)c1Cl [Compound 537],–,–,–,–,–,–,100,100,100,100,–,–,control effect against cucumber downy mildew(%) ([6]; 12.5 mg/L): 100%; protectant activity against cucumber downy mildew in vivo ([6]; 6.25 ppm): 98%; inhibition at 25 ppm [8]: > 80%
FC(F)c1ncnc(NCCc2cnn(-c3ccccc3)c2)c1Cl [Compound 797],100,100,–,–,100,–,–,–,–,–,60,100,Insecticidal activity against diamond back moth (%) ([4]; 10 mg/L): 65%; Insecticidal activity against diamond back moth (%) ([4]; 100 mg/L): 85%; control against diamond back moth (mortality) ([4]; 100 ppm): 85%; control against diamond back moth (mortality) ([4]; 600 ppm): 100%
CC(C)(C)n1cc(CCNc2ncnc(C(F)F)c2Cl)cn1 [Compound 38],100,100,100,100,–,100,–,–,–,–,40,100,control effect against cucumber anthracnose (%) ([5]; 6.25 mg/L): 85%; control effect against cucumber anthracnose (%) ([5]; 25 mg/L): 90%; control effect against cucumber anthracnose (%) ([5]; 100 mg/L): 95%
CCc1ncnc(NCCc2cnn(-c3ccc(Cl)cc3)c2)c1Cl.Cl [Compound 10932],–,–,–,–,100,–,–,–,–,–,–,–,Insecticidal activity against diamond back moth (%) ([4]; 10 mg/L): 25%; Insecticidal activity against diamond back moth (%) ([4]; 100 mg/L): 50%; control against diamond back moth (mortality) ([4]; 600 ppm): 100%; inhibition at 25 ppm [7]: > 80%; mortality at 600 ppm [3]: > 80%
Cc1ncnc(NCCc2cnn(-c3ccc(OC(F)(F)F)cc3)c2)c1Cl [Compound 318],100,100,–,–,–,100,100,90,98,100,90,100,control effect against cucumber anthracnose (%) ([5]; 0.78 mg/L): 98%; control effect against cucumber anthracnose (%) ([5]; 1.56 mg/L): 98%; control effect against cucumber anthracnose (%) ([5]; 3.13 mg/L): 100%; control effect against cucumber anthracnose (%) ([5]; 6.25 mg/L): 100%; control effect against cucumber anthracnose (%) ([5]; 25 mg/L): 100%; control effect against cucumber anthracnose (%) ([5]; 100 mg/L): 100%; protectant activity against cucumber anthracnose in vivo ([5]; 0.78 ppm): 98%; protectant activity against cucumber anthracnose in vivo ([5]; 1.56 ppm): 98%; protectant activity against cucumber anthracnose in vivo ([5]; 3.13 ppm): 100%
"Cc1nc(C)c(C)c(N(C)Cc2cnn(-c3ccccc3)c2)n1 [CK3, reference compound]",–,0,19,77,0,0,100,0,30,40,–,–,Insecticidal activity against peach aphid (%) ([2]; 10 mg/L): 0%
"CCc1ncnc(NCc2cnn(-c3ccccc3)c2C(F)(F)F)c1Cl [CK2, reference compound]",50,100,55,100,20,–,100,20,75,100,0,20,Insecticidal activity against peach aphid (%) ([2]; 10 mg/L): 0%
"CCc1ncnc(NCc2cnn(-c3ccccc3)c2C)c1Cl [CK1, reference compound]",60,100,0,91,43,–,100,20,95,100,0,40,Insecticidal activity against peach aphid (%) ([2]; 10 mg/L): 0%
Cc1ncnc(NCCc2cnn(-c3ccccc3)c2)c1Cl [Compound 241],–,–,–,–,100,–,100,100,100,100,–,–,Insecticidal activity against diamond back moth (%) ([4]; 10 mg/L): 29%; Insecticidal activity against diamond back moth (%) ([4]; 100 mg/L): 71%; control against diamond back moth (mortality) ([4]; 600 ppm): 100%; inhibition rate against rice blast ([7]; 0.1 ppm): 80%; inhibition rate against rice blast ([7]; 0.3 ppm): 80%; inhibition rate against rice blast ([7]; 0.9 ppm): 100%; control effect against cucumber downy mildew(%) ([6]; 12.5 mg/L): 65%
CCc1ncnc(NCCc2cnn(Cc3ccc(Cl)cc3)c2)c1Cl [Compound 5657],–,–,–,–,–,–,–,–,–,–,–,–,melting point: 109.9 °C; inhibition at 25 ppm [7]: > 80%; inhibition at 25 ppm [8]: > 80%
